From patent US20250171460A1, “INDUCERS OF KLF2 AND METHODS OF USE THEREOF” (Riparian Pharmaceuticals, Inc., priority 2022, published 2025)
Read-outs that look alike come from different tables or passages of the source.

System: primary human endothelial cells expressing luciferase under the control of the KLF2 promoter
Experiment: KLF2 Induction Cell Based Bioassay (luciferase reporter)
Conditions: for EC50: Homo sapiens, Endothelial cell; for Bioactivity Bucket, S: Bioactivity of stereoisomers: S isomer
From the text: In endothelial cell culture media, a stock of the highest working concentration was made at no more than 1% DMSO vehicle. The working stock was then serially diluted 1:2 to make an 11-point concentration response curve. Included in the 96-well plate were 2 reference compounds with known potencies. A DMSO column was included in the 96-well plate at the highest percent vehicle of the working stocks. The 96-well cell culture plate of primary human endothelial cells expressing luciferase under the control of the KLF2 promoter was dosed with 200 μL per well of the dilution series as well as the DMSO control column. The assay plate was incubated at 37° C. for 24 hours. The supernatant was collected at 24 hours.
20 μL of the supernatant was then placed in a 384-well plate with optical duplicates. The corners of the plate received 20 μL of the Gaussia Luciferase Enzyme positive control, as well as 20 μL of the 50 μM Coelenterizine substrate. The plate read is then calibrated using the control, and read using a Molecular Devices SpectraMax iD5, providing luminescence in relative light units (RLU). The plate reader injected 20 μL of the 50 μM Coelenterizine substrate immediately before taking the RLU measurement for each well.
The sample signals were then normalized to the average signal of the DMSO column, as well as to the maximum signal of one of the reference compounds, as shown in the equations below: […]
The EC50 of each compound is then defined as when the concentration response curve passes 0.5.

[1] = 24 h, KLF2 promoter luciferase, 24 hours, 11-point concentration response, read-out: Activity Range (EC50)
[2] = Bioactivity of stereoisomers: R isomer, read-out: Bioactivity Bucket, R
[3] = Bioactivity of stereoisomers: racemate, read-out: Bioactivity Bucket, Racemate

| SMILES | EC50 [1] | also measured |
| --- | --- | --- |
| COCCN1C(=O)c2oc3ccccc3c2OCC1(C)C(=O)NCc1ccc(F)cc1OC (stereo not drawn) [Example 39] | 501 to 5000 nM |  |
| COCCN1C(=O)c2oc3ccccc3c2OCC1(C)C(=O)NCc1c(F)cc(Cl)cc1OC (stereo not drawn) [Example 16] | 501 to 5000 nM |  |
| [2H]C([2H])([2H])Oc1ccccc1CNC(=O)C1(C)COc2c(oc3ccccc23)C(=O)N1CCOC (stereo not drawn) [Example 36] | 501 to 5000 nM |  |
| COCCN1C(=O)c2oc3cc(C(=O)NC4CCC4)ccc3c2OCC1(C)C(=O)NCc1c(C#N)cccc1OC (stereo not drawn) [Example 90] | ≤ 50 nM |  |
| COCCN1C(=O)c2oc3ccccc3c2OCC1(C)C(=O)NCc1c(OC)ccc(F)c1Cl (stereo not drawn) [Example 17] | 501 to 5000 nM |  |
| C=C(C)c1ccc2c3c(oc2c1)C(=O)N(CCOC)C(C)(C(=O)NCc1ccccc1OC)CO3 (stereo not drawn) [Example 96] | 501 to 5000 nM |  |
| [2H]C([2H])([2H])N(C(=O)CN1C(=O)c2oc3ccc(Cl)cc3c2OCC1(C)C(=O)NCc1ncccc1OCC)C([2H])([2H])[2H] (stereo not drawn) [Example 109, 4-(2-(bis(methyl-d3)amino)-2-oxoethyl)-9-chloro-N-((3-ethoxypyridin-2-yl)methyl)-3-methyl-5-oxo-2,3,4,5-tetrahydrobenzofuro[2,3-f][1,4]oxazepine-3-carboxamide] | 51 to 500 nM |  |
| COCCN1C(=O)c2oc3cc(C(=O)NC4CCC4)ccc3c2OCC1(C)C(=O)NCc1c(Cl)cccc1OC (stereo not drawn) [Example 88] | ≤ 50 nM |  |
| COc1cccnc1CNC(=O)[C@@]1(C)COc2c(oc3cc(-c4nc(C#N)co4)ccc23)C(=O)N1CC(=O)N(C)C [Example 129, (R)-8-(4-cyanooxazol-2-yl)-4-(2-(dimethylamino)-2-oxoethyl)-N-((3-methoxypyridin-2-yl)methyl)-3-methyl-5-oxo-2,3,4,5-tetrahydrobenzofuro[2,3-f][1,4]oxazepine-3-carboxamide] | ≤ 50 nM | EC50 [2]: ≤ 50 nM |
| COc1cccc(F)c1CNC(=O)C1(C)COc2c(oc3cc(C(=O)NC4CCC4)ccc23)C(=O)N1CC1CC1 (stereo not drawn) [Example 93] | ≤ 50 nM |  |
| COCCN1C(=O)c2oc3ccccc3c2OCC1(C)C(=O)NCc1c(OC)cccc1C(N)=O (stereo not drawn) [Example 26] | 501 to 5000 nM |  |
| COCCN1C(=O)c2oc3ccccc3c2OCC1(C)C(=O)NCc1c(OC)cccc1OC (stereo not drawn) [Example 33] | 501 to 5000 nM |  |
| COc1cccc(Cl)c1CNC(=O)C1(C)COc2c(oc3cc(C(=O)NC4CCC4)ccc23)C(=O)N1[C@H]1C[C@@H](OC)C1 (stereo partly drawn) [Example 84] | ≤ 50 nM |  |
| COc1cccc(C#N)c1CNC(=O)C1(C)COc2c(oc3cc(C(=O)NC4(C)COC4)ccc23)C(=O)N1CC1CC1 (stereo not drawn) [Example 65] | 51 to 500 nM |  |
| COCCN1C(=O)c2oc3ccccc3c2OCC1(C)C(=O)NCc1c(OC)ccc2ccccc12 (stereo not drawn) [Example 32] | 501 to 5000 nM |  |
| COCCN1C(=O)c2oc3cc(C4CC4)ccc3c2OCC1(C)C(=O)NCc1ccccc1OC (stereo not drawn) [Example 97] | 501 to 5000 nM |  |
| COCCN1C(=O)c2oc3cc(C(=O)NC4(C)COC4)ccc3c2OC[C@@]1(C)C(=O)NCc1c(F)cccc1OC [Example 135] |  | Bioactivity Bucket, S: inactive |
| COCCN1C(=O)c2oc3cc(-c4cncs4)ccc3c2OCC1(C)C(=O)NCc1ccccc1OC (stereo not drawn) [Example 100] | 51 to 500 nM |  |
| COCCN1C(=O)c2oc3ccccc3c2OCC1(C)C(=O)NCc1cc2ncccc2cc1OC (stereo not drawn) [Example 18] | 501 to 5000 nM |  |
| COc1ccc(F)cc1CNC(=O)[C@@]1(C)COc2c(oc3ccc(F)cc23)C(=O)N1Cc1nnn(CCO)n1 [Example 119] | 51 to 500 nM |  |
| COc1cccc(C#N)c1CNC(=O)C1(C)COc2c(oc3cc(C(=O)NC4CCC4)ccc23)C(=O)N1CC1CC1 (stereo not drawn) [Example 67] | 51 to 500 nM |  |
| COCCN1C(=O)c2oc3ccccc3c2OCC1(C)C(=O)NCc1ccc2ccccc2c1OC (stereo not drawn) [Example 41] | 501 to 5000 nM |  |
| COc1cc(F)ccc1CNC(=O)C1(C)COc2c(oc3cc(C(=O)NC4CCC4)ccc23)C(=O)N1CC1CC1 (stereo not drawn) [Example 72] | 51 to 500 nM |  |
| [2H]C([2H])([2H])N(C(=O)CN1C(=O)c2oc3cc(-c4ncco4)ccc3c2OC[C@]1(C)C(=O)NCc1ncccc1OC)C([2H])([2H])[2H] [Example 127] | ≤ 50 nM |  |
| CCOC(=O)CN1C(=O)c2oc3ccccc3c2OCC1(C)C(=O)NCc1ccccc1OC (stereo not drawn) [Example 4] | 501 to 5000 nM |  |

| SMILES | EC50 [1] | also measured |
| --- | --- | --- |
| COCCN1C(=O)c2oc3ccccc3c2OCC1(C)C(=O)NCc1cc2ccccc2cc1OC (stereo not drawn) [Example 31] | 501 to 5000 nM |  |
| COCCN1C(=O)c2oc3ccccc3c2OCC1(C)C(=O)NCc1c(C#N)cccc1OC (stereo not drawn) [Example 28] | 501 to 5000 nM |  |
| [2H]C([2H])([2H])N(C(=O)CN1C(=O)c2oc3cc(-c4nc(C(F)(F)F)cs4)ccc3c2OC[C@]1(C)C(=O)NCc1ncccc1OC)C([2H])([2H])[2H] [Example 126] | ≤ 50 nM |  |
| COc1ccc(F)cc1CNC(=O)C1(C)COc2c(oc3cc(C(=O)NC4(C)COC4)ccc23)C(=O)N1[C@H]1C[C@@H](OC)C1 (stereo partly drawn) [Example 70] | 51 to 500 nM |  |
| COCCN1C(=O)c2oc3cc(C(=O)NC4CCC4)ccc3c2OC[C@]1(C)C(=O)NCc1c(F)cccc1OC [Example 94] | ≤ 50 nM |  |
| COCCN1C(=O)c2oc3cc(C(=O)NC4(C)COC4)ccc3c2OCC1(C)C(=O)NCc1c(C#N)cccc1OC (stereo not drawn) [Example 62] | 51 to 500 nM |  |
| COCCN1C(=O)c2oc3ccccc3c2OCC1(C)C(=O)NCc1ncccc1OC (stereo not drawn) [Example 47] | 501 to 5000 nM |  |
| COc1cccc(F)c1CNC(=O)C1(C)COc2c(oc3ccc(F)cc23)C(=O)N1CC(=O)N(C)CCO (stereo not drawn) [Example 111, 9-fluoro-N-(2-fluoro-6-methoxybenzyl)-4-(2-((2-hydroxyethyl)(methyl)amino)-2-oxoethyl)-3-methyl-5-oxo-2,3,4,5-tetrahydrobenzofuro[2,3-f][1,4]oxazepine-3-carboxamide] | 51 to 500 nM |  |
| CC=C1CC(N2C(=O)c3oc4ccccc4c3OCC2(C)C(=O)NCc2ccccc2OC)C1 (racemic) [Example 15] | 501 to 5000 nM | EC50 [3]: 501 to 5000 nM |
| COc1ccccc1CNC(=O)C1(C)COc2c(oc3ccccc23)C(=O)N1C1CC2(CC2)C1 (stereo not drawn) [Example 14] | 51 to 500 nM |  |
| C#CCCN1C(=O)c2oc3ccccc3c2OCC1(C)C(=O)NCc1ccccc1OC (racemic) [Example 5] |  | EC50 [3]: 501 to 5000 nM |
| COc1cccnc1CNC(=O)[C@@]1(C)COc2c(oc3ccc(F)cc23)C(=O)N1CC(=O)N1CC(F)C1 [Example 115] | 51 to 500 nM |  |
| COc1cccc(F)c1CNC(=O)[C@@]1(C)COc2c(oc3cc(C(F)(F)F)cnc23)C(=O)N1CC(=O)N(C)C [Example 134, (R)-4-(2-(dimethylamino)-2-oxoethyl)-N-(2-fluoro-6-methoxybenzyl)-3-methyl-5-oxo-8-(trifluoromethyl)-2,3,4,5-tetrahydropyrido[2′,3′:4,5]furo[2,3-f][1,4]oxazepine-3-carboxamide] | 51 to 500 nM |  |
| COCCN1C(=O)c2oc3cc(C(=O)NC4CCC4)ccc3c2OC[C@]1(C)C(=O)NCc1ccccc1OC [Example 50, (R)—N8-cyclobutyl-N3-(2-methoxybenzyl)-4-(2-methoxyethyl)-3-methyl-5-oxo-2,3,4,5-tetrahydrobenzofuro[2,3-f][1,4]oxazepine-3,8-dicarboxamide] | 51 to 500 nM | EC50 [2]: ≤ 50 nM |
| COCCOCCn1cc(CCN2C(=O)c3oc4ccccc4c3OC[C@@]2(C)C(=O)NCc2ccccc2OC)nn1 [Example 136] |  | Bioactivity Bucket, S: inactive |
| COc1cccc(F)c1CNC(=O)C1(C)COc2c(oc3ccc(C)cc23)C(=O)N1CC(=O)N(C)C (stereo not drawn) [Example 133, 4-(2-(dimethylamino)-2-oxoethyl)-N-(2-fluoro-6-methoxybenzyl)-3,9-dimethyl-5-oxo-2,3,4,5-tetrahydrobenzofuro[2,3-f][1,4]oxazepine-3-carboxamide] | 51 to 500 nM |  |
| COc1cccc(F)c1CNC(=O)C1(C)COc2c(oc3cc(C(=O)NC4CCC4)ccc23)C(=O)N1[C@H]1C[C@@H](OC)C1 (stereo partly drawn) [Example 91] | ≤ 50 nM |  |
| COc1cccc(F)c1CNC(=O)[C@@]1(C)COc2c(oc3ccc(Cl)cc23)C(=O)N1CC(=O)N1CC(O)C1 [Example 105] | 51 to 500 nM |  |
| COc1cccnc1CNC(=O)[C@@]1(C)COc2c(oc3ccc(F)cc23)C(=O)N1CC(=O)N1CC(F)(F)C1 [Example 116] | 51 to 500 nM |  |
| COCCN1C(=O)c2oc3ccccc3c2OCC1(C)C(=O)NCc1c(OC)ccc2cnccc12 (stereo not drawn) [Example 19] | 501 to 5000 nM |  |
| [2H]C([2H])([2H])N(C(=O)CN1C(=O)c2oc3ccc(F)cc3c2OC[C@]1(C)C(=O)NCc1c(F)cccc1OC)C([2H])([2H])[2H] [Example 114, (R)-4-(2-(bis(methyl-d3)amino)-2-oxoethyl)-9-fluoro-N-(2-fluoro-6-methoxybenzyl)-3-methyl-5-oxo-2,3,4,5-tetrahydrobenzofuro[2,3-f][1,4]oxazepine-3-carboxamide] | 51 to 500 nM |  |
| COCCN1C(=O)c2oc3cc(C(=O)NC4(C)COC4)ccc3c2OCC1(C)C(=O)NCc1c(F)cccc1OC (racemic) [Example 81] | 51 to 500 nM | EC50 [3]: 51 to 500 nM |
| C=CCN1C(=O)c2oc3ccccc3c2OCC1(C)C(=O)NCc1ccccc1OC (stereo not drawn) [Example 12] | 501 to 5000 nM |  |
| COc1cccnc1CNC(=O)C1(C)COc2c(oc3cc(C(=O)NC4(C)COC4)ccc23)C(=O)N1CC1CC1 (stereo not drawn) [Example 52] | 51 to 500 nM |  |
| COCCN1C(=O)c2oc3ccccc3c2OCC1(C)C(=O)NCc1c(Cl)cc(Cl)cc1OC (stereo not drawn) [Example 44] | 501 to 5000 nM |  |
